How the values were obtained:
NLuc (NanoLuc) [1] = molecular target: T1, NLuc (NanoLuc) (Oplophorus gracilirostris, UniProt Q9GV45, A31E/Q38R/Q45L/L54V/A60N/K70R/V71I/A81I/F95D/L99Q/M102K/I117V/P142E/Q151K/Y165I/N193R); experiment: bioluminescence imaging and spectra, COS-7; assay type: cell-based; settings: live cells and lysate; […] substrate in PBS
T1 construct: engineered NanoLuc variant of the 19 kDa subunit, expressed from pcDNA3.1(+) in COS-7, mostly cytosolic

NLuc (NanoLuc) [2] = molecular target: T1, NLuc (NanoLuc); experiment: bioluminescence spectra, COS-7 lysate; assay type: biochemical; settings: substrate solution […] in PBS
[3] = molecular target: T2, LSSmNep-GR5GS-NLuc (GR HLBD) (Homo sapiens, UniProt P04150); experiment: NIR-BRET, COS-7 stably expressing single-chain probe; assay type: cell-based; settings: live cells stimulated […] h; DBlueC substrate; […] nm filter
T2 construct: gene NR3C1; stably expressed in COS-7
T2 sequence (P04150 486-777): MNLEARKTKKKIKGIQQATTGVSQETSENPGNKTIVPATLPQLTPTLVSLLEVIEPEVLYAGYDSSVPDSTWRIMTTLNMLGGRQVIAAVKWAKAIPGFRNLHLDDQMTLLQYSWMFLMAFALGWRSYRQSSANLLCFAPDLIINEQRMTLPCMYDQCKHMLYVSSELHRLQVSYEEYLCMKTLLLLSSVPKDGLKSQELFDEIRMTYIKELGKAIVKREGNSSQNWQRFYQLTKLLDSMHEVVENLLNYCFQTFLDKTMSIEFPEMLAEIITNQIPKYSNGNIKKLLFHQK

T1 sequence (Q9GV45 28-196 with the stated changes): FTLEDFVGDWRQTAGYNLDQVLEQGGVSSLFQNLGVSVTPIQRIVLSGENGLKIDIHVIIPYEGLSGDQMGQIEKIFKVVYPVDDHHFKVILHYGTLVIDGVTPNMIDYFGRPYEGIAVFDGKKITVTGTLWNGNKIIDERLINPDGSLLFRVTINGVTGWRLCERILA

With `Oc1c(Cc2ccccc2)nc2c(Cc3ccccc3)nc(-c3ccccc3)cn12` [DBlueC, DeepBlueC] the “bioluminescence imaging and spectra, COS-7” value (NLuc (NanoLuc) [1]) was “DBlueC and nCTZ were exclusively bright with NLuc and ALuc47, respectively”.
With `Oc1ccc(Cc2nc3c(Cc4ccccc4)nc(-c4ccc(O)cc4)cn3c2O)cc1` [nCTZ, native coelenterazine] the “bioluminescence spectra, COS-7 lysate” value (NLuc (NanoLuc) [2]) was “The nCTZ was commonly bright among all the tested marine luciferases”.
For `C[C@]12CCC(=O)C=C1CC[C@@H]1[C@@H]2[C@@H](O)C[C@@]2(C)[C@H]1CC[C@]2(O)C(=O)CO` [cortisol], the “fold NIR-BRET intensity at 10^-6 M” value [3] was 1.3 fold.
